Measurements reported in paper PMC9854762, “Antibiofilm and Anti-Quorum-Sensing Activities of Novel Pyrazole and Pyrazolo[1,5-a]pyrimidine Derivatives as Carbonic Anhydrase I and II Inhibitors: Design, Synthesis, Radiosterilization, and Molecular Docking Studies” (Antibiotics, 2023).
Where “and” joins values, the source holds several entries; their conditions need not be identical. Equal values may be shown once.

Assays:
P. aeruginosa DH-5698 = experiment: Agar well-diffusion assay; assay type: cell-based, Pseudomonus aeruginosa; conditions: Pseudomonas aeruginosa, DH5698; P. aeruginosa DH-5698; 50 µL of 10 mM per well; read-out: Diameter of Inhibition Zones (AZOI)
Experimental: (§1) The synthesized compounds were initially screened for their in vitro antibacterial activity against the different Gram-positive and Gram-negative bacteria, tested using the agar well-diffusion assay. The turbidity of the bacterial suspensions was established to the 0.5 McFarland turbidity standard. The activity was performed on TS agar plates. The bacteria were spread on the surface of the agar plates, and 10 mm wells were screwed into the agar plates. The assay was performed under aseptic conditions. An aliquot of 50 µL of each tested compound (10 mM) was added to the wells, and the plates were incubated overnight at 37 °C. Both Erythromycin and Amikacin antibiotic disks were used as positive control, while DMSO solvent was used as a negative control in this study. The diameters of inhibition zones were measured and recorded in mm. A comparative study of the synthesized compounds was determined. The experiment was performed in triplicates.

S. aureus = experiment: Anti-QS activity via signal inhibition, CV026 as indicator; assay type: cell-based; conditions: S. aureus 10^6 CFU/mL; sub-MICs; control 12.0 mm
Experimental: (§2) The anti-QS potential of the tested compounds was explored as described. Briefly, an overnight bacterial suspension of the indicator organism C. violaceum CV026 was prepared in a concentration of 10^6 CFU/mL, and an aliquot of 200 µL was seeded in 5 mm of Soft Top agar (1.3 g agar, 2.0 g tryptone, 1.0 g NaCl, and 200 mL deionized water), supplemented with 20 µL of 0.25 µg/mL C6-HSL (N-hexanoyl-L-homoserine lactone), added as an exogenous AHL source. Wells were cut in the center of the plate after incubation for 30 min and then filled with 50 µL of sub-MICs of each most-active pyrazole hybrid. DMSO was used as a negative control. The plates were incubated at 28 °C for 48 h. Inhibition of violacein production by the indicator strain around the well, indicated by the presence of a white circle surrounded by a purple halo, was considered as positive for QS interference. For further investigation to determine the anti-QS activity for the pyrazole against the biofilm-forming bacterial isolates, an in vitro screening was performed. This was carried out by inoculation of 200 µL from an O/N CV026 culture onto plates of Soft Top agar. Wells of 8 mm diameter were separately made and filled with 90 µL of each biofilm-forming bacterial isolate (10^6 CFU/mL), plus 10 µL of each active pyrazole derivative (sub-MICs). Wells containing the bacterial isolates without treatment were used as controls. The signal diffusion zone diameter produced during the bacterial growth was measured in the presence of pyrazole and pyrazolo[1,5-a]pyrimidine derivatives and compared with the zone diameter of the violacein production by CV026.

P. aeruginosa = experiment: as above; assay type: cell-based; conditions: P. aeruginosa 10^6 CFU/mL; sub-MICs; control 11.2 mm
Experimental: as §2

hCA-I = target: T1, hCA-I (Homo sapiens, UniProt P00915); experiment: Carbonic anhydrase isoenzyme inhibition assay; assay type: biochemical; conditions: for Ki: Lineweaver–Burk graphs
T1 construct: from tissue; host or cells: human erythrocytes (hemolysate)
Experimental: (§3) The purification of both human cytosolic CA isoforms was carried out as previously described, using a simple one-step procedure of Sepharose-4B-L-tyrosine-sulfanilamide affinity chromatography. […] The carbonic anhydrase isoenzymes’ activities were determined in accordance with the previous study. […] For the designation of the inhibition efficacy of each novel pyrazole and for the pyrazolo[1,5-a]pyrimidine derivatives on both hCA isoenzymes, an activity (%) graph was drawn. The IC50 values were obtained from activity (%) versus compounds plots. The Ki values were calculated using three concentrations for each derivative.

hCA-II = target: T2, hCA-II (Homo sapiens, UniProt P00918); experiment: Carbonic anhydrase isoenzyme inhibition assay; assay type: biochemical; conditions: for Ki: Lineweaver–Burk graphs
T2 construct: from tissue; host or cells: human erythrocytes (hemolysate)
Experimental: as §3

P. aeruginosa biofilm = experiment: Crystal violet biofilm inhibition assay; assay type: cell-based; conditions: compounds at their MICs, crystal violet OD570
Experimental: (§4) The microtiter plate method was used to evaluate the active pyrazoles’ inhibitory activities on the strong biofilm-forming bacterial strains. This method was carried out as described, with some modifications. The antibiofilm effects of tested pyrazoles are presented as a percentage change from untreated bacterial controls. Overnight cultures of micro-organisms in the TSB medium with 10% (wt/vol) glucose were prepared as 10^8 CFU/mL, and then 100 µL was dispensed into each test well. Then, 100 µL of different concentrations of compounds, at their MICs, were dispensed into each well. The negative control contained only TSB, whereas the positive control contained cell cultures without compound addition. The supernatant was decanted and each well gently rinsed three times with 300 µL of sterile distilled water and discarded after incubation at 37 °C for 48 h. The plates were dried with air for 40 min. They were stained with 0.1% (wt/vol) crystal violet at room temperature for 30 min and washed three times with sterile distilled water. Afterward, the crystal violet was solubilized in 95% ethanol, and the absorbance was read in a microplate reader (MicroplatePhotometer and Multiskan FC) at 570 nm. This test was performed in triplicate, and the mean was taken as an average of three readings. The percentage of biofilm inhibition was calculated according to Equation (1):(1) Biofilm eradication %=OD positivecontrol−OD sample /OD positive control×100

S. aureus biofilm = experiment: Crystal violet biofilm inhibition assay; assay type: cell-based; conditions: compounds at their MICs, crystal violet OD570
Experimental: as §4

E. faecalis DH-5478 = experiment: Agar well-diffusion assay; assay type: cell-based; conditions: Enterococcus faecalis, DH5478; E. faecalis DH-5478; 50 µL of 10 mM per well; read-out: Diameter of Inhibition Zones (AZOI)
Experimental: as §1

S. aureus DH-432 = experiment: Agar well-diffusion assay; assay type: cell-based; conditions: Staphylococcus aureus, DH432; S. aureus DH-432; 50 µL of 10 mM per well; read-out: Diameter of Inhibition Zones (AZOI)
Experimental: as §1

A. baumannii DH-243 = experiment: Agar well-diffusion assay; assay type: cell-based; conditions: Acinetobacter baumannii, DH243; A. baumannii DH-243; 50 µL of 10 mM per well; read-out: Diameter of Inhibition Zones (AZOI)
Experimental: as §1

E. coli DH-5987 = experiment: Agar well-diffusion assay; assay type: cell-based; conditions: Escherichia coli, DH5987, 50 µL of 10 mM per well, read-out: Diameter of Inhibition Zones (AZOI)
Experimental: as §1

S. pyogenes DH-3467 = experiment: Agar well-diffusion assay; assay type: cell-based; conditions: Streptococcus pyogenes, DH3467; S. pyogenes DH-3467; 50 µL of 10 mM per well; read-out: Diameter of Inhibition Zones (AZOI)
Experimental: as §1

T1 sequence (P00915 whole entry): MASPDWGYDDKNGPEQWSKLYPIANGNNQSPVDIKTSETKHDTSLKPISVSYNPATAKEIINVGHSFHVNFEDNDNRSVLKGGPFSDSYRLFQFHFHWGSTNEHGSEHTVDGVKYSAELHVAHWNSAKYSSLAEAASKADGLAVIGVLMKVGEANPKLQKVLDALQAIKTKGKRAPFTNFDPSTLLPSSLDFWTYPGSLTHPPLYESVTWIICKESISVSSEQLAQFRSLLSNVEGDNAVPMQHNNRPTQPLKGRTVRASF

| Structure (SMILES) | zone of inhibition at 10000 µM (P. aeruginosa DH-5698) [mm] | QS signal diffusion zone (S. aureus) [mm] | QS signal diffusion zone (P. aeruginosa) [mm] | IC50 (hCA-I) [nM] | Ki (hCA-I) [nM] | IC50 (hCA-II) [nM] | Ki (hCA-II) [nM] | Biofilm Eradication % (P. aeruginosa biofilm) | Biofilm Eradication % (S. aureus biofilm) | zone of inhibition at 10000 µM (E. faecalis DH-5478) [mm] | zone of inhibition at 10000 µM (S. aureus DH-432) [mm] | zone of inhibition at 10000 µM (A. baumannii DH-243) [mm] | zone of inhibition at 10000 µM (E. coli DH-5987) [mm] | zone of inhibition at 10000 µM (S. pyogenes DH-3467) [mm] |
| --- | --- | --- | --- | --- | --- | --- | --- | --- | --- | --- | --- | --- | --- | --- |
| CCOC(=O)c1ccc(N=Nc2c(N=Cc3ccc(N(C)C)cc3)n[nH]c2N)cc1 [Compound 5a, Ethyl 4-((5-amino-3-((4-(dimethylamino)benzylidene)amino)-1H-pyrazol-4-yl)diazenyl)benzoate] | 28.3 | 7.3 | 9.8 | 138 | 176 | 161 | 144 | 63% and 63 ± 0.52% | 69% and 69 ± 0.24% | 28.2 | 28.6 | 28 | 29.9 | 28.9 |
| CCOC(=O)c1ccc(N=Nc2c(N)nn3c(N)c(C#N)c(-c4ccc(N(C)C)cc4)nc23)cc1 [Compound 9a, Ethyl-4-((2,7-diamino-6-cyano-5-(4-(dimethylamino)phenyl)pyrazolo[1,5-a]pyrimidin-3-yl)diazenyl)benzoate] | 28.5 | 6.9 | 9.5 | 123 | 102 | 142 | 136 | 66% and 66 ± 0.9% | 72% and 72 ± 0.81% | 28.7 | 29.1 | 28.4 | 30.4 | 29.3 |
| CCOC(=O)c1ccc(N=Nc2c(N)nn3c(C)cc(C)nc23)cc1 [Compound 6, ethyl-4-((2-amino-5,7-dimethylpyrazolo[1,5-a]pyrimidin-3-yl)diazenyl)benzoate] | 28.8 | 6.5 | 8.7 | 169 | 153 | 130 | 146 | 76% and 76 ± 0.52% | 80% and 80 ± 0.63% | 29.5 | 29.5 | 28.8 | 31 | 30.2 |
| CCOC(=O)c1ccc(N=Nc2c(N)n[nH]c2N)cc1 [Compound 3a, Ethyl 4-((3,5-diamino-1H-pyrazol-4-yl)diazenyl)benzoate] | 30.8 | 5.0 | 7.8 | 92.3 | 88.8 | 73.2 | 91.8 | 88% and > 80% |  | 30.6 | 31.1 | 29.3 | 32 | 31.5 |
| CCOC(=O)c1ccc(N=Nc2c(N)nn3c(O)c(C#N)c(-c4ccc(N(C)C)cc4)nc23)cc1 [Compound 10a, Ethyl-4-((2-amino-6-cyano-5-(4-(dimethylamino)phenyl)-7-hydroxypyrazolo[1,5-a]pyrimidin-3-yl)diazenyl)benzoate] | 30.1 | 6.2 | 8.0 | 153 | 144 | 122 | 139 | 80% and > 80% |  | 29.8 | 30.6 | 29.1 | 31.5 | 30.7 |
